# Reference: ChEMBL document CHEMBL1201862, “PubChem BioAssay data set” (2004)
# Activity calls are given as the source filed them.
# Assays:
# [1] = target: Ubiquitin carboxyl-terminal hydrolase BAP1 (Homo sapiens, UniProt Q92560); assay: inhibition of BAP1 ubiquitin hydrolase activity – biochemical, dose response (AID 714); assay type: functional
# [2] = target: T1, Heat shock factor protein 1 (Mus musculus, UniProt P38532); assay: enhancement of HSF1-driven luciferase signal – cell-based, NIH3T3, luminescence, dose retest, confirmation (AID 435004); assay type: functional;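 further: stress induced by proteasome inhibitor MG132 added 30 min after compound; luciferase reporter driven by HSF1 response element in NIH3T3 cells; actives raise luminescence as potentiators of the MG132 stress response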
# T1 sequence (P38532 whole entry): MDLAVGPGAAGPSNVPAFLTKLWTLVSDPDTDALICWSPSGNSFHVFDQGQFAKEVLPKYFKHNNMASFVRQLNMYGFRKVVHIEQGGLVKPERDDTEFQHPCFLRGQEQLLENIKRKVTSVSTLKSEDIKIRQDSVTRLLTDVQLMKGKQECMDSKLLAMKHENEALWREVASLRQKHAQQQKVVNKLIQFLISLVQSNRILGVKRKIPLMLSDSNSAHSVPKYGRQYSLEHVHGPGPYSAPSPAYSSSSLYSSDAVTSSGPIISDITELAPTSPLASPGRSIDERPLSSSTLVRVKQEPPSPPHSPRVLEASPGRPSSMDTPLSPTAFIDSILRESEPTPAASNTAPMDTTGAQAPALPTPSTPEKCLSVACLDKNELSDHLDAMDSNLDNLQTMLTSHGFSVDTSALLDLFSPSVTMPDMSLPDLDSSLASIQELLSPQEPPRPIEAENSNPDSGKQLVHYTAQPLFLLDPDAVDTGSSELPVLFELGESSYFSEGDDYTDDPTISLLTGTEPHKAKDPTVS
# Beta-galactosidase = Beta-galactosidase (Escherichia coli, UniProt Q8VNN2); assay: Dose response counterscreen for EBI2 assay utilizing the enzyme, b-galactosidase.; assay type: functional
# Sequence of Beta-galactosidase (Q8VNN2 whole entry): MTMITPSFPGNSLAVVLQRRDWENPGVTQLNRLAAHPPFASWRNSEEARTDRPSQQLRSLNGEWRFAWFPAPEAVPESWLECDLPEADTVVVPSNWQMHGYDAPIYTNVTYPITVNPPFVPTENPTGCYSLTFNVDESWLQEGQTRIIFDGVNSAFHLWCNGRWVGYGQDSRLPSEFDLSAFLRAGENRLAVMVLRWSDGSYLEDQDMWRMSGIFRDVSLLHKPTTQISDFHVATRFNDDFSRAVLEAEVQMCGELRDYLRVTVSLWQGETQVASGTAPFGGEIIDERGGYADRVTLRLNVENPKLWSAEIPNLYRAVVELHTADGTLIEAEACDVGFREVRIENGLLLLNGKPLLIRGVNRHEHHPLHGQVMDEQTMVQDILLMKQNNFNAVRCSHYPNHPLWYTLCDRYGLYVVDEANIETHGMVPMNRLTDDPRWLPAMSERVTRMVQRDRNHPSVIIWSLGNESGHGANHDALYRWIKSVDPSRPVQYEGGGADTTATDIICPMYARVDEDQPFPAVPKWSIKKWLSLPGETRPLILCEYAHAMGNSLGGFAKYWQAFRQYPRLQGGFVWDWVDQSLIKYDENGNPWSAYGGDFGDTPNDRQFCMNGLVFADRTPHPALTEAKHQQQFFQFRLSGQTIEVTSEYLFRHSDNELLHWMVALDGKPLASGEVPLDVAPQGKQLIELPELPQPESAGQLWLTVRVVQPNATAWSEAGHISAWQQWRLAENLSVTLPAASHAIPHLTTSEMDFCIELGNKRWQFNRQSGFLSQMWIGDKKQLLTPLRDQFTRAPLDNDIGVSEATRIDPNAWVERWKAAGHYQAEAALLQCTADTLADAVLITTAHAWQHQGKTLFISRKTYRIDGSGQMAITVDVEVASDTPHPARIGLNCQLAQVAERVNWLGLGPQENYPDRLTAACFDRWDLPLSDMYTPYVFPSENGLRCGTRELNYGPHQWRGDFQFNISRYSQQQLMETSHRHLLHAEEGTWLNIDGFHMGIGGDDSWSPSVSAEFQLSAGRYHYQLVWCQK
# [3] = target: G-protein coupled receptor 183 (Homo sapiens, UniProt P32249); assay: SAR confirmation of small molecule antagonists of the EBI2 receptor via a luminescent beta-arrestin assa.; assay type: functional
# Sequence of G-protein coupled receptor 183 (P32249 whole entry): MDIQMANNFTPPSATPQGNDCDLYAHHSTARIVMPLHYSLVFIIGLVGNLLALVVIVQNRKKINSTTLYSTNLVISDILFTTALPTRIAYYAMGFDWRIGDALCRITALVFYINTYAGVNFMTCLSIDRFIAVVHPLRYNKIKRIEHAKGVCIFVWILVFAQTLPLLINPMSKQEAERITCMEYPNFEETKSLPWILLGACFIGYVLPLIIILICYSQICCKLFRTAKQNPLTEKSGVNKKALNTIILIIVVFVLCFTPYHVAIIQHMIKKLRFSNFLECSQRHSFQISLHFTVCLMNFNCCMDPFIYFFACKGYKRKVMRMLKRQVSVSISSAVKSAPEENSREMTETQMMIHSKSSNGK
# Paired box protein Pax-8 = Paired box protein Pax-8 (Homo sapiens, UniProt Q06710); assay: PAX8 transcriptional activity inhibition in RMG-I – RMG-I cells, luciferase, cherry-pick, dose response (AID 687027); assay type: functional, cell-based;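 further: luciferase reporter driven by Pax8 target thyroperoxidase promoter measured by SteadyGlo luminescence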
# Sequence of Paired box protein Pax-8 (Q06710 whole entry): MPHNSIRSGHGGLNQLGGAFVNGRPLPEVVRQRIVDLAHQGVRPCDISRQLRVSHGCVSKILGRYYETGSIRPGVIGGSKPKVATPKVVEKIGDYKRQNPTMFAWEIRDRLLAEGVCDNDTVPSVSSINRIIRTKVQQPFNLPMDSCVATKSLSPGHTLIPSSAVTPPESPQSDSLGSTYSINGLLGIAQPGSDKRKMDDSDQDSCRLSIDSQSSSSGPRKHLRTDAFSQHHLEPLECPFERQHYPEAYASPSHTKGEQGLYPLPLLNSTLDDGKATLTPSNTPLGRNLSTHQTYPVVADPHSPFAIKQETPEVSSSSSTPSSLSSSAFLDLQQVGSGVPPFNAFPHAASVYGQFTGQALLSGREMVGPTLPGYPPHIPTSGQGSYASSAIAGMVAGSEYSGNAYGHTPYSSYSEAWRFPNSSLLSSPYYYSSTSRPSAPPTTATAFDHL
# [4] = toxicity toward immortalized ovarian surface epithelium – cell-based, plate reader, dry powder samples, cytotoxicity control for PAX8 inhibitor project, dose response (AID 743045); assay type: functional
# [5] = A2780 cell killing – plate reader, dry powder samples, cytotoxicity control, dose response (AID 743046); assay type: functional, cell-based
# [6] = OVCAR-3 cell viability loss – plate reader, dry powder samples, PAX8 inhibitor project, dose response (AID 743044); assay type: functional, cell-based
# [7] = IGROV1 cell killing – plate reader, dry powder samples, PAX8 inhibitor project, dose response (AID 743043); assay type: functional, cell-based; conditions: IGROV-1
# [8] = Late-stage results from the probe development effort to identify antagonists of arginine vasopressin receptor 1a (AVPR1a): fluorescence-based cell-based dose response AVPR1a inhibition assay.; assay type: functional
# Vasopressin V1b receptor = Vasopressin V1b receptor (Homo sapiens, UniProt P47901); assay: Late-stage results from the probe development effort to identify antagonists of arginine vasopressin receptor 1a (AVPR1a): fluorescence-based cell-based dose response AVPR1b inhibition counterscreen assay.; assay type: functional
# Sequence of Vasopressin V1b receptor (P47901 whole entry): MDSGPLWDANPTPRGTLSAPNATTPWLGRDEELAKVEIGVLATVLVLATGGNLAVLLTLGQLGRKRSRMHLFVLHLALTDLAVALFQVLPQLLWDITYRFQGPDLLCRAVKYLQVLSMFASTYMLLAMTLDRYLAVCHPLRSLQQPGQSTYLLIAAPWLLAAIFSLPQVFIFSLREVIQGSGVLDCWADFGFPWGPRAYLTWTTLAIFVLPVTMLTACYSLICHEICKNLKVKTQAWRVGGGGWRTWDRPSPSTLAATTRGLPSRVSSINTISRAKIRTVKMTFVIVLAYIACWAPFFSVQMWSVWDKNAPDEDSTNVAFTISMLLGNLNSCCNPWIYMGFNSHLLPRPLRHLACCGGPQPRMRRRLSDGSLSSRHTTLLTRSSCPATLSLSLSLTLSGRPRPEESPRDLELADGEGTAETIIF
# Vasopressin V2 receptor = Vasopressin V2 receptor (Homo sapiens, UniProt P30518); assay: Late-stage results from the probe development effort to identify antagonists of arginine vasopressin receptor 1a (AVPR1a): fluorescence-based cell-based dose response AVPR2 inhibition counterscreen assay.; assay type: functional
# Sequence of Vasopressin V2 receptor (P30518 whole entry): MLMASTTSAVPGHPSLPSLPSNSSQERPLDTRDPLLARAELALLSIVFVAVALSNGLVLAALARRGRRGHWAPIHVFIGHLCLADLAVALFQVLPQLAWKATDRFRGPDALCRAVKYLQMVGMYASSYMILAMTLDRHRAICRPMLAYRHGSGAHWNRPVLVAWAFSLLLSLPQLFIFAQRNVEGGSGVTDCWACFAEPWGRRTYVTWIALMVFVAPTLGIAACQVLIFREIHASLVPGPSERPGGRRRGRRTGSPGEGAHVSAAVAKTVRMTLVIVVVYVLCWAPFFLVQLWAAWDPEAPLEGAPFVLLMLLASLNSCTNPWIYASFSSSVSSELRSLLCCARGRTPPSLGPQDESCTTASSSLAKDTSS
# [9] = Late-stage results from the probe development effort to identify antagonists of arginine vasopressin receptor 1a (AVPR1a): fluorescence-based cell-based dose response OXTR inhibition counterscreen assay.; assay type: functional
# [10] = target: Endoplasmic reticulum aminopeptidase 2 (Homo sapiens, UniProt Q6P179); assay: inhibition of ERAP2 arginine-AMC cleavage – biochemical, fluorescence plate reader, cherry-picked, set 2, selectivity assay for selective ERAP1 modulator project, dose response (AID 743320)
# Sequence of Endoplasmic reticulum aminopeptidase 2 (Q6P179 whole entry): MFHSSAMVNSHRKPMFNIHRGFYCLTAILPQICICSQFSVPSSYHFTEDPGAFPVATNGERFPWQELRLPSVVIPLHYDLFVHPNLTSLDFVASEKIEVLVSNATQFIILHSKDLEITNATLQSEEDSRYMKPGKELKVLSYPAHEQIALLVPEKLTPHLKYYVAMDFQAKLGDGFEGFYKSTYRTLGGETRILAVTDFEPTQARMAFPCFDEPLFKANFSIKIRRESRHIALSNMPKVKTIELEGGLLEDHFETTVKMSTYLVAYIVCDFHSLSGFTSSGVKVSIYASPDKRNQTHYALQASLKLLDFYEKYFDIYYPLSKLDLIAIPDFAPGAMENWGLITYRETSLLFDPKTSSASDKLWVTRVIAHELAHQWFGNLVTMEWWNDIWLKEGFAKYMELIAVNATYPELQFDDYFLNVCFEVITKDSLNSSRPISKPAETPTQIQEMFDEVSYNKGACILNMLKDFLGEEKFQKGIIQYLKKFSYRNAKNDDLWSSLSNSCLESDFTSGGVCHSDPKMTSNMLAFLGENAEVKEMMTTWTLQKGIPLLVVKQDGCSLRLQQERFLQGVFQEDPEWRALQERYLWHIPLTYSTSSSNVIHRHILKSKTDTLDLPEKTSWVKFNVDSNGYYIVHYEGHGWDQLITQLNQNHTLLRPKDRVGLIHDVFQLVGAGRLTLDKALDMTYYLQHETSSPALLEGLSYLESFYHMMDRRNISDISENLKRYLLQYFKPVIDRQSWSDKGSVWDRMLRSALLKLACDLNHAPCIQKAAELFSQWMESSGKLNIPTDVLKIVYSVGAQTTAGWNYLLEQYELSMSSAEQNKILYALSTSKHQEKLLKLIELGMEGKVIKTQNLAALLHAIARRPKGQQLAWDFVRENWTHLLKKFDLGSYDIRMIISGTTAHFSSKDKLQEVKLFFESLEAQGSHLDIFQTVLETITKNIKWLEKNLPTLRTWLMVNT
# [11] = target: Endoplasmic reticulum aminopeptidase 1 (Homo sapiens, UniProt Q9NZ08); assay: inhibition of human ERAP1 enzyme activity – biochemical, cherry-pick, set 2, plate reader, dose response (AID 743314)
# [12] = target: Metabotropic glutamate receptor 5 (Rattus norvegicus, UniProt P31424); assay: Identification of a glycine sulfonamide based non-MPEP site positive allosteric potentiator (PAM) of mGlu5 (calcium_assay).; assay type: functional
# [13] = target: T2, Oxysterols receptor LXR-beta (Homo sapiens, UniProt P55055); assay type: functional, cell-based;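 further: Cell-based luminescence dose-response assay of agonist activity at LXR, run as a confirmatory counterscreen to a daf-12 agonist screen; HEK293 cells with Gal4-LXR fusion and GAL4-driven luciferase reporter; agonist potency from rising luciferase signal of a Gal4-LXR reporter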
# T2 sequence (P55055 whole entry): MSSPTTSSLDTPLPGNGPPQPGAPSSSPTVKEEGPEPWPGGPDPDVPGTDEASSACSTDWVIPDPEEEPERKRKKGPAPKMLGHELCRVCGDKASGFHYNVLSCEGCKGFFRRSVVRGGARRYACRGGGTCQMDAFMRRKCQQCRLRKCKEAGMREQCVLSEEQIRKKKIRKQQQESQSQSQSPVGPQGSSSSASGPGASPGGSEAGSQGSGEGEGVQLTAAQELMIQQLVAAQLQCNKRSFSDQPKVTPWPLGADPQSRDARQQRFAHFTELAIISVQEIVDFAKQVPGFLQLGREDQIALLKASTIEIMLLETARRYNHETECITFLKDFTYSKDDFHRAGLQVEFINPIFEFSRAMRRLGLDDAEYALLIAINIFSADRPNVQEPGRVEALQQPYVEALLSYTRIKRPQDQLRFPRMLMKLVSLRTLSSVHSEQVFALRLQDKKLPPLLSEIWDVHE
# cells [14] = assay: cells
# [15] = IC50 of insulin release inhibition, rat insulinoma INS-1E line, 5 mM glucose, cell-based (AID 1117331); assay type: functional
# cells [16] = assay type: functional, cell-based; conditions: INS-1E
# Bcl-2-related protein A1 [17] = target: T3, Bcl-2-related protein A1 (Mus musculus, UniProt Q07440); assay: displacement of Bid BH3 peptide from Bfl-1 – biochemical, fluorescence polarization, FITC-Bid, mouse, primary screen (AID 432)
# T3 sequence (Q07440 whole entry): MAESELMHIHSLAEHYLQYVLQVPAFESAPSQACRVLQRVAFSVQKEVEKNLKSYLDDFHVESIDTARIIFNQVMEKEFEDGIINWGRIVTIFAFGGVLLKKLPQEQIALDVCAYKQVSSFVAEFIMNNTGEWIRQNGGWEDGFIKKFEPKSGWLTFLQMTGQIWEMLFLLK
# Bcl-2-related protein A1 [18] = target: T3, Bcl-2-related protein A1; assay: small-molecule antagonists of Bfl-1/BH3 interaction – biochemical, TR-FRET, mouse Bfl-1, confirmation (AID 621);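 further: TR-FRET binding of GST-Bfl-1 to FITC-labelled Bid peptide via terbium antibody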
# [19] = target: T4, Polyadenylate-binding protein 1 (Homo sapiens, UniProt P11940); assay: MLLE binding blockers, Cy5 peptide tracer – biochemical, fluorescence polarization, Cy5-PAM2 peptide, secondary, miRNA deadenylation inhibitor project, dose response (AID 602260); assay type: functional; conditions: read-out: IC50_Mean
# T4 sequence (P11940 whole entry, the tested form may be a part): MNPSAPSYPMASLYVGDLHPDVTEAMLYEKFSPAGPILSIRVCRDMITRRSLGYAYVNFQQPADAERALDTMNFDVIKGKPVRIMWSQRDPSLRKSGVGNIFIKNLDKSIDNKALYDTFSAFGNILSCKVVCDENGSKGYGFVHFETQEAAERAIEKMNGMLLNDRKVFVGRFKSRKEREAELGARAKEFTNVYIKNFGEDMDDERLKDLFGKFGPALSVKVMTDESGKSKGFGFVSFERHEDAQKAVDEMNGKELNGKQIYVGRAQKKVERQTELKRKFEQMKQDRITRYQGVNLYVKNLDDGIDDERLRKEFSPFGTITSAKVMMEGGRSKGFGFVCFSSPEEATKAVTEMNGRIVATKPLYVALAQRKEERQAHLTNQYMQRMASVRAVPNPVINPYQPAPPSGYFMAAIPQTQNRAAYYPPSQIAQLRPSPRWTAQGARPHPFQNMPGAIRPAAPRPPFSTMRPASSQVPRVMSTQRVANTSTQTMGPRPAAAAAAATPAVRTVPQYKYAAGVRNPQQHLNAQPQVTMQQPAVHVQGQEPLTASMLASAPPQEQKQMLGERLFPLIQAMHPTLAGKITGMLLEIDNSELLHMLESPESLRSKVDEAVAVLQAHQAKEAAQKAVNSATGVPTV
# [20] = target: T4, Polyadenylate-binding protein 1; assay: MLLE domain peptide-binding blockers, IC50 – biochemical, fluorescence polarization, FITC-PAM2 peptide, dose response (AID 602259); assay type: functional; conditions: read-out: IC50_Mean
# Sequence of Ubiquitin carboxyl-terminal hydrolase BAP1 (Q92560 whole entry): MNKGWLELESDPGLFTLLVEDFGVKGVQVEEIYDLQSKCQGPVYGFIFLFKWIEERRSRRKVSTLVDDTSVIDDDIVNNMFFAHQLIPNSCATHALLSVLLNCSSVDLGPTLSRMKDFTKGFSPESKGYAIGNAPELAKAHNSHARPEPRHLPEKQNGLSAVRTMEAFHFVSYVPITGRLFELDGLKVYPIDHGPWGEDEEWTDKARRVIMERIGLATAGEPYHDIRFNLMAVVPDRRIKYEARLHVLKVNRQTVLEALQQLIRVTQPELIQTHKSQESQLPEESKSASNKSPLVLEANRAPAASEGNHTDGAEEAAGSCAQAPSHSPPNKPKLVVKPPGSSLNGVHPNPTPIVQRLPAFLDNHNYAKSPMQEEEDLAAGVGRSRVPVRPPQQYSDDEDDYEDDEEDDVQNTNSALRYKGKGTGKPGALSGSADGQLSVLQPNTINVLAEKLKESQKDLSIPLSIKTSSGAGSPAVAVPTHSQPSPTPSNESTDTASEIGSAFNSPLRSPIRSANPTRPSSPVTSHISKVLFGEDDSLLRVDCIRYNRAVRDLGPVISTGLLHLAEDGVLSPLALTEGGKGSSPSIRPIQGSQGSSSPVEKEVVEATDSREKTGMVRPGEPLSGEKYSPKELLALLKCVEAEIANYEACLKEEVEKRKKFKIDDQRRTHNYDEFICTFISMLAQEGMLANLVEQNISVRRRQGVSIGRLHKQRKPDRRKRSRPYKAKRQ
structure (smiles),measurement,setting,value
O=C1CC(c2ccoc2)CC(Nc2ccccc2)=C1C(=O)Nc1ccccc1 (centres undefined),IC50,[1],> 50 µM (not active)
same,EC50,[2],> 260 µM (inactive)
O=C(/C=C/c1ccc(Br)cc1)N1CCN(Cc2ccccc2)CC1,IC50,Beta-galactosidase,> 80 µM (inactive)
same,IC50,[3],0.0028 µM (active)
C[C@H](CO)N1C[C@H](C)[C@H](CN(C)Cc2ccccc2)OCCCC[C@H](C)Oc2ccc(NC(=O)Nc3ccc(C(F)(F)F)cc3)cc2C1=O,AC50,Paired box protein Pax-8,4.95 µM (active)
same,AC50,[4],50 µM (active)
same,AC50,[5],41.4 µM (active)
same,AC50,[6],17.6 µM (active)
same,AC50,[7],26.9 µM (active)
COc1cccc(N(CC2CC2)C(=O)N2CCN(c3ccccc3C)CC2)c1,IC50,[8],0.057 µM (active)
same,IC50,Vasopressin V1b receptor,12.4 µM (inactive)
same,IC50,Vasopressin V2 receptor,20.6 µM (inactive)
same,IC50,[9],20.6 µM (inactive)
CC(C)[C@@H](C(=O)N[C@@H](CCc1ccc(O)cc1)C(=O)O)N(C)C(=O)[C@H](CO)NC(=O)[C@@H](O)[C@H](N)CCCCCCCCl,AC50,[10],1.47 µM (active)
same,AC50,[11],0.682 µM (active)
CC(C)(C)NC(=O)CN(c1ccccc1Cl)S(C)(=O)=O,EC50,[12],> 30 µM (inactive)
COc1ccc(C(=O)/N=c2\sc3ccccc3n2C)cc1,EC50,[13],> 67.5 µM (inactive)
same,EC50,cells [14],> 67.5 µM (inactive)
O=C(NN1CCCC1)NS(=O)(=O)c1ccc(Cl)cc1 [GLYCLOPYRAMIDE],IC50,[15],14.9 µM (inactive)
same,IC50,cells [16],> 33.3 µM (inactive)
NC(=O)N1c2ccccc2CC(=O)c2ccccc21 [OXCARBAZEPINE],IC50,Bcl-2-related protein A1 [17],> 100 µM (not active)
same,IC50,Bcl-2-related protein A1 [18],> 100 µM (not active)
same,IC50,[19],> 66 µM (inactive)
same,IC50,[20],28.1 µM (inactive)
